Like-named read-outs stand apart in the source and are kept apart here.
Columns and labels:
[1] = test system: pregnant rats and offspring; conditions: rat, cited from earlier work
[2] = cited from earlier work
[3] = human, in vivo, iv
Excerpt: Mean infusion rate is 0.36 mcg/kg/hr with the maximum rate ranging from about 0.2 mcg/kg/hr to about 0.6 mcg/kg/hr (see FIGS. 18 to 20).

mouse lymphoma cell = conditions: mammalian mouse lymphoma cell forward mutation assay; cited from earlier work
[4] = test system: agitation in subjects suffering from schizophrenia
pregnant rabbits = conditions: rabbit; intravenous up to 96 mcg/kg/day, GD 6 to 18; cited from earlier work
[5] = test system: bone marrow of CD-1 and NMRI mice; conditions: cited from earlier work
[6] = test system: bacterial reverse mutation; conditions: in vitro Ames bacterial reverse mutation test; cited from earlier work
[7] = cited from earlier work; remark: listed apart in the source
cytochrome P450 = conditions: human liver microsomes; cited from earlier work
plasma proteins = conditions: cited from earlier work
[8] = test system: adult patients and healthy adult subjects; conditions: loading IV bolus of undiluted drug, 19.4 mcg/kg; one patient; cited from earlier work
human lymphocyte = conditions: cited from earlier work
male or female rats = conditions: daily subcutaneous injections up to 54 mcg/kg; cited from earlier work
pregnant rats = conditions: rat, cited from earlier work
[9] = radiolabeled, intravenous, after nine days

In the case of `Cc1cccc([C@H](C)c2cnc[nH]2)c1C` [Dexmedetomidine, (+) 4-(S)-[1-(2,3-dimethylphenyl)ethyl]-1H-imidazole], the “Developmental findings when first generation offspring were mated” value ([1]; 32 mcg/kg/day) is given as “Decreased viability of second generation offspring and an increase in early implantation loss along with delayed motor development”, the Developmental findings ([1]; subcutaneous 8 mcg/kg/day, GD 16 to PND 25) is given as “Reduced pup and adult offspring weights and grip strength” and the Placental transfer ([2]; available data in humans) is given as “crosses the placenta”. The “Presence in human milk” value ([2]; following intravenous administration, published literature) was “presence of dexmedetomidine in human milk”, the “Time to reach Cmax” value [3] was 15 to 105 min and the Mutagenicity (mouse lymphoma cell) was “not mutagenic”. For the same compound, the PEC value ([4]; Patient 1 (treatment arm), 0 min after infusion start) was 9, the PEC value ([4]; Patient 1 (treatment arm), 15 min after infusion start) was 5 and the PEC value ([4]; Patient 2 (treatment arm), 0 min after infusion start) was 16. It also gave a PEC value ([4]; Patient 2 (treatment arm), 15 min after infusion start) of 13, a PEC value ([4]; Patient 2 (treatment arm), 30 min after infusion start) of 12 and a PEC value ([4]; Patient 2 (treatment arm), 45 min after infusion start) of 11. For the same compound, the PEC value ([4]; Patient 2 (treatment arm), 60 min after infusion start) was 9, the PEC value ([4]; Patient 2 (treatment arm), 75 min after infusion start) was 7 and the PEC value ([4]; Patient 3 (treatment arm), 0 min after infusion start) was 12. It also gave a PEC value ([4]; Patient 3 (treatment arm), 15 min after infusion start) of 12, a PEC value ([4]; Patient 3 (treatment arm), 30 min after infusion start) of 10 and a PEC value ([4]; Patient 3 (treatment arm), 45 min after infusion start) of 7. It also gave a PEC value ([4]; Patient 3 (treatment arm), 60 min after infusion start) of 6, a PEC value ([4]; Patient 4 (treatment arm), 0 min after infusion start) of 9 and a PEC value ([4]; Patient 4 (treatment arm), 15 min after infusion start) of 9. The PEC value ([4]; Patient 4 (treatment arm), 30 min after infusion start) was 8, the PEC value ([4]; Patient 4 (treatment arm), 45 min after infusion start) was 8 and the PEC value ([4]; Patient 4 (treatment arm), 60 min after infusion start) was 7. It also gave a PEC value ([4]; Patient 4 (treatment arm), 75 min after infusion start) of 7, a PEC value ([4]; Patient 4 (treatment arm), 90 min after infusion start) of 7 and a PEC value ([4]; Patient 4 (treatment arm), 120 min after infusion start) of 7. For the same compound, the PEC value ([4]; Patient 4 (treatment arm), […] after infusion start) was 7, the PEC value ([4]; Patient 11 (treatment arm), 0 min after infusion start) was 13 and the PEC value ([4]; Patient 11 (treatment arm), 15 min after infusion start) was 13. It also gave a PEC value ([4]; Patient 11 (treatment arm), 30 min after infusion start) of 11, a PEC value ([4]; Patient 11 (treatment arm), 45 min after infusion start) of 9 and a PEC value ([4]; Patient 11 (treatment arm), 60 min after infusion start) of 9. For the same compound, the PEC value ([4]; Patient 11 (treatment arm), 75 min after infusion start) was 7, the PEC value ([4]; Patient 12 (treatment arm), 0 min after infusion start) was 13 and the PEC value ([4]; Patient 12 (treatment arm), 15 min after infusion start) was 13. The PEC value ([4]; Patient 12 (treatment arm), 30 min after infusion start) was 13, the PEC value ([4]; Patient 12 (treatment arm), 45 min after infusion start) was 10 and the PEC value ([4]; Patient 12 (treatment arm), 60 min after infusion start) was 10. It also gave a PEC value ([4]; Patient 12 (treatment arm), 75 min after infusion start) of 8, a PEC value ([4]; Patient 12 (treatment arm), 90 min after infusion start) of 6 and a PEC value ([4]; Patient 12 (treatment arm), […] after infusion start) of 5. For the same compound, the PEC value ([4]; Patient 14 (treatment arm), 0 min after infusion start) was 10, the PEC value ([4]; Patient 14 (treatment arm), 15 min after infusion start) was 9 and the PEC value ([4]; Patient 14 (treatment arm), 30 min after infusion start) was 6. It also gave a PEC value ([4]; Patient 14 (treatment arm), 45 min after infusion start) of 6, a PEC value ([4]; Patient 14 (treatment arm), 60 min after infusion start) of 5 and a PEC value ([4]; Patient 14 (treatment arm), 75 min after infusion start) of 5. The PEC value ([4]; Patient 16 (treatment arm), 0 min after infusion start) was 10, the PEC value ([4]; Patient 16 (treatment arm), 15 min after infusion start) was 9 and the PEC value ([4]; Patient 16 (treatment arm), 30 min after infusion start) was 6. The PEC value ([4]; Patient 16 (treatment arm), 45 min after infusion start) was 6, the PEC value ([4]; Patient 16 (treatment arm), 60 min after infusion start) was 7 and the PEC value ([4]; Patient 16 (treatment arm), 75 min after infusion start) was 5. It also gave a PEC value ([4]; Patient 17 (treatment arm), 0 min after infusion start) of 10, a PEC value ([4]; Patient 17 (treatment arm), 15 min after infusion start) of 8 and a PEC value ([4]; Patient 17 (treatment arm), 30 min after infusion start) of 7. The PEC value ([4]; Patient 17 (treatment arm), 45 min after infusion start) was 5, the “Malformation or embryo-fetal toxicity” value (pregnant rabbits) was “No malformation or embryo-fetal toxicity” and the Clastogenicity ([5]; CD-1 mice) was “not clastogenic”. The Clastogenicity ([5]; NMRI mice) was “some evidence for clastogenicity”, the Mutagenicity [6] was “not mutagenic” and the “Pharmacokinetics (Cmax, Tmax, AUC, t½, CL, and V) in renal impairment versus normal renal function” value ([7]; creatinine clearance <30 mL/minute) was “not significantly different”. For the same compound, the Extent of biotransformation ([7]; direct glucuronidation and cytochrome P450 (primarily CYP2A6)) was “almost complete biotransformation”, the Clearance ([7]; intravenous administration) was “approximately 39 L/h” and the “Steady-state volume of distribution (Vss)” value ([7]; intravenous administration) was “approximately 118 liters”. For the same compound, the “Radioactivity recovered in the feces” value [7, 9] was 4%, the “Radioactivity recovered in the urine” value [7, 9] was 95% and the “Aliphatic hydroxylation products, share of the dose in urine” value ([7]; radiolabeled, intravenous) was “approximately 14%”. For the same compound, the “N-methylation products, share of the dose in urine” value ([7]; radiolabeled, intravenous) was “approximately 18%”, the “Products of N-glucuronidation, share of cumulative urinary excretion” value ([7]; radiolabeled, intravenous) was “approximately 34%” and the “Share of urinary radioactivity excreted within 24 hours after the infusion” value ([7]; radiolabeled, intravenous) was “Approximately 85%”. For the same compound, the “Unchanged drug in the urine” value ([7]; radiolabeled, intravenous) was “No unchanged dexmedetomidine was detected”, the “Urinary metabolites not identified” value ([7]; radiolabeled, intravenous) was “Approximately 28%” and the “Clearance in hepatic impairment (Child-Pugh Class A, B, or C)” value ([7]; versus normal hepatic function) was “decreased”. For the same compound, the “Cytochrome P450 mediated drug interactions” value (cytochrome P450) was “no evidence of cytochrome P450 mediated drug interactions”, the “Fraction bound to plasma proteins in hepatic impairment versus healthy subjects” value (plasma proteins) was “significantly decreased” and the Average protein binding (plasma proteins; plasma of healthy male and female subjects) was 94%. The Effects of overdose [8] was “cardiac arrest”, the Clastogenicity (human lymphocyte; absence or presence of human liver S9 metabolic activation) was “not clastogenic” and the Clastogenicity (human lymphocyte; presence of rat liver S9 metabolic activation) was “weak clastogenic response”. The Fertility (male or female rats) was “not affected”, the Malformations (pregnant rats; any dose level) was “No malformations” and the Embryo-fetal findings (pregnant rats; subcutaneous 20 mcg/kg/day) was “No embryo-fetal toxicity”. For the same compound, the Embryo-fetal findings (pregnant rats; subcutaneous 200 mcg/kg/day, GD 5 to 16, with maternal toxicity) was “Increased post-implantation losses and reduced live pups”.
